For 9 compounds, efflux ratio and IC50 results are on record in US11427594B2, “Non brain penetrant A2A inhibitors and methods for use in the treatment of cancers” (iTeos Belgium SA, priority 2018, dated 2022).

SMILES strings stand for the structures. Where two headings read alike, the source gives them in different places.

Data set [1] is described as follows: Permeability and efflux in Caco-2 cells. Format: in vitro ADME. The settings on record: human, Caco-2 monolayer, bidirectional transport, pH 7.4. The protocol:
The transport buffer (TB, pH 7.4) used in the study is Hank's Buffered Saline Solution (HBSS, Gibco, Cat #14025-076) with 10 mM HEPES at pH 7.4. Fetal bovine serum (FBS) (Corning, Cat #Corning-35-076-CV, or other vendors), Minimum Essential Media (MEM) (Gibco, Cat #41500-034) as well as its supplements are purchased from Invitrogen (Carlsbad, Calif., USA). Caco-2 cell line (Cat #HTB-37) is purchased from the ATCC (Rockville, Md., USA). The organic solvents used in the study are purchased from Sigma Aldrich (St. Louis, Mo., USA). For reference compounds (fenoterol, propranolol and digoxin) and test compounds, 0.4 mM intermediate solutions are prepared by diluting 10 mM or other appropriate concentrations of DMSO stock solutions with DMSO. 2 μM dosing solutions for reference compounds and test compounds are prepared by spiking the appropriate volume of intermediate solution to TB with and without 1 μM Zosuquidar. The final concentration of DMSO is no more than 1% (v/v). Caco-2 cells are grown in MEM supplemented with 2 mM L-glutamine, 10% FBS, 100 U/mL penicillin-G and 100 μg/mL streptomycin. The cells are incubated at 37° C., 5% CO2 and relatively saturated humidity. After reaching 80-90% confluency, the cells are gently detached with 0.05% trypsin-EDTA solution. Cells at passage 30-50 are seeded on the 96-well BD insert system (Cat #359274) at the density of 1×10^5 cells/cm2 and cultured for 21-28 days with medium changed every 4-5 days. TB and dosing solutions were pre-warmed to 37° C. before transport assay. The cell monolayer was washed twice with HBSS containing 10 mM HEPES. For A-B (apical to basolateral) directional transport assay, 75 μL dosing solution is added to the apical well. Fill each basolateral well with 250 μL TB. For B-A (basolateral to apical) directional transport assay, 250 μL of dosing solution is added to the basolateral well after filling each apical well with 75 μL TB. Test compound(s) and digoxin are tested at 2 μM in the presence or absence of 1 μM zosuquidar bidirectionally in duplicate. Atenolol and propranolol are tested at 2 μM in the absence of zosuquidar in A to B direction in duplicate. The plates are incubated for 120 minutes at 37° C. with 5% C02 and saturated humidity. The time zero samples are generated by mixing 50 μL initial dosing solution of test compound or reference compound with 100 μL TB and 250 μL quench solution (acetonitrile (ACN) or other appropriate solvent with internal standard(s), based on the bioanalytical method development). At 120 minutes, 150 μL of solution is collected from each A-B receiver well followed by addition of 250 μL quench solution to get A-B receiver sample. And for other samples (A-B donor, B-A donor and receiver), 50 μL of solution is collected from each corresponding well followed by addition of 250 μL quench solution and 100 μL TB. All samples are vortex-mixed and centrifuged at 3220 g for 20 minutes. Subsequently, supernatant is diluted with ultra pure water for LC-MS/MS analysis. The concentrations of test compound in all samples are determined by LC-MS/MS and expressed as peak area ratio of analyte to internal standard. The concentration of samples is expressed using the peak area ratio of Analyte to Internal Standard (Analyte/IS). The apparent permeability coefficient (Papp) is calculated using the following equation: Papp=VR/(Area*Time)*(CR/C0) wherein VR is the solution volume in the receiver chamber (0.075 mL on the apical side, 0.25 mL on the basolateral side); Area is the surface area for the transport, i.e. 0.0804 cm2 for the area of the monolayer; Time is incubation time, expressed in seconds, 2 h=2×3600 s; C0 is the initial concentration in the donor chamber; CR is the final concentrations in receiver chamber. The efflux ratio is calculated using the following equation: Efflux ratio=[…]) where Papp (A-B) and Papp (B-A) are the Papp values of compound in Apical to Basolateral and Basolateral to Apical directional transport, respectively.
On the technique in general: Passage across Caco-2 layers is used to estimate intestinal permeability.

The target of data set [2] is T1, A2A receptor (Homo sapiens, UniProt P29274).
T1 construct: host or cells: HEK-293
T1 sequence (P29274 whole entry): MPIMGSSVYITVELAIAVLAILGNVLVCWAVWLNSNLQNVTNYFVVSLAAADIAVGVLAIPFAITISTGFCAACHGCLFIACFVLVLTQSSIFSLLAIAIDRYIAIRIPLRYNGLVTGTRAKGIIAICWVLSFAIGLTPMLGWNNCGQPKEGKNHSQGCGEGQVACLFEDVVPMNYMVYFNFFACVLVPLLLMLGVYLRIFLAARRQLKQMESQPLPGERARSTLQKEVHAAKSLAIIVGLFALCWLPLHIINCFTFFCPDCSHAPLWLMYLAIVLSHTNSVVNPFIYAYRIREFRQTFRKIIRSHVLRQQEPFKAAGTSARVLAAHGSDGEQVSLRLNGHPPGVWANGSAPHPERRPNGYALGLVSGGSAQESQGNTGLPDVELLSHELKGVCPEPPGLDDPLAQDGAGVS
The experiment in a line: Inhibition of cAMP production in HEK cells (LANCE Ultra cAMP, TR-FRET). Format: cell-based. The settings on record: HEK-293 cells with stable transfection of A2A receptor. The protocol:
When the A2A receptor is activated, is induces the production of cAMP. The present assay thus aims at showing that cAMP production is inhibited in HEK cells in response to their exposure to the compounds of the invention. HEK-293 cells with a stable transfection of A2A receptor were bought from PerkinElmer® (#ES-011-C). Cells were cultured in EMEM medium (Lonza, #BE12-611F) supplemented with 10% FBS (Lonza, #DE14-801F) and 200 μg/mL of G418 (Tocris, #4131) at 37° C. and 5% CO2. Fresh media without the selection marker was added on the day immediately before the experiment to stop selection pressure. cAMP inhibition and antagonist IC50 determination were accessed using the LANCE® Ultra cAMP Kit from PerkinElmer® (#TRF0262) on white half area 96 well plates (PerkinElmer®, #6005560). The assays were conducted in two different stimulation buffers: • a) normal with 1×HBSS (Gibco®, #141750-95), 5 mM HEPES (Lonza, #BE17-737E), 0.1% BSA and 25 μM Rolipram and • b) HSA with 1×HBSS (Gibco®, #141750-95), 5 mM HEPES (Lonza, #BE17-737E), 2% Human Serum Albumin (Sigma-Aldrich®—A1653), 30 μM of EHNA (Tocris—#1261) and 100 μM Rolipram. Stimulation buffer b) mimics the human situation by increasing the amount of albumin present in the assay. Compounds of the present invention were diluted 100× in either of the buffers depending on the assay performed. A total of 1000 cells per well were pre-incubated for 10 minutes with the compounds of the present invention before adding the corresponded EC80 of A2A agonist (3 nM of NECA in normal buffer) or 5 μM of Adenosine (in HAS buffer) for a total reaction time of 30 minutes. The total volume of the reaction was 20 μl (10 μl of cells, 5 μl of antagonist and 5 μl of agonist). The reaction was finalized by adding 10 μl of 4×EU-cAMP tracer working solution and 10 μl of 4× ULight-anti-cAMP working solution. The TR-FRET signal was measured after 1 hour using a Spectramax Paradigm (Molecular Devices).

[3] abbreviates: HSA stimulation buffer, 5 μM Adenosine as agonist, 2.0% HSA, read-out: IC50 (nM) (5 μM Adenosine as agonist, 2.0% HSA).
The mark [4] stands for this setting: normal stimulation buffer, 3 nM NECA as agonist, 0.1% BSA, read-out: IC50 (nM) (3 nM NECA as agonist, 0.1% BSA).

Usually efflux ratio stands for the permeability from basolateral to apical divided by that in the opposite direction, in the common usage. As usually defined, the IC50 is the concentration needed to halve the response being measured. Regarding `C[S@+]([O-])CCOc1cc(N2CCN(CCNc3nc(N)n4nc(-c5ccco5)nc4n3)CC2)c(F)cc1F` [Compound 10, (S)—N5-(2-(4-(2,4-difluoro-5-(2-(methylsulfinyl)ethoxy)phenyl)piperazin-1-yl)ethyl)-2-(furan-2-yl)-[1,2,4]triazolo[1,5-a][1,3,5]triazine-5,7-diamine], the efflux ratio at 120 min, 2 μM in data set [1] was over 900. In addition, the IC50 in data set [2] (setting [3]) turned out to be 25 nM; in data set [2] (setting [4]), 0.2 nM.

In the case of `C[S@@+]([O-])CCOc1cc(N2CCN(CCNc3nc(N)n4nc(-c5ccco5)nc4n3)CC2)c(F)cc1F` [Compound 11, (R)—N5-(2-(4-(2,4-difluoro-5-(2-(methylsulfinyl)ethoxy)phenyl)piperazin-1-yl)ethyl)-2-(furan-2-yl)-[1,2,4]triazolo[1,5-a][1,3,5]triazine-5,7-diamine], the efflux ratio at 120 min, 2 μM in data set [1] is over 600. For the same compound, the IC50 in data set [2] (setting [3]) came out at 41 nM; in data set [2] (setting [4]), 0.4 nM.

In the case of `C[S@+]([O-])CCOc1cc(N2CCN(CCn3ncc4c3nc(N)n3nc(-c5ccco5)nc43)CC2)c(F)cc1F` [Compound 12, (S)-7-(2-(4-(2,4-difluoro-5-(2-(methylsulfinyl)ethoxy)phenyl)piperazin-1-yl)ethyl)-2-(furan-2-yl)-7H-pyrazolo[4,3-e][1,2,4]triazolo[1,5-c]pyrimidin-5-amine], the efflux ratio at 120 min, 2 μM in data set [1] was over 140. The IC50 in data set [2] (setting [3]) was found to be 162 nM; in data set [2] (setting [4]), 0.4 nM.

Regarding `C[S@@+]([O-])CCOc1cc(N2CCN(CCn3ncc4c3nc(N)n3nc(-c5ccco5)nc43)CC2)c(F)cc1F` [Compound 13, (R)-7-(2-(4-(2,4-difluoro-5-(2-(methylsulfinyl)ethoxy)phenyl)piperazin-1-yl)ethyl)-2-(furan-2-yl)-7H-pyrazolo[4,3-e][1,2,4]triazolo[1,5-c]pyrimidin-5-amine], the efflux ratio at 120 min, 2 μM in data set [1] was over 100. For the same compound, the figures for the IC50 in data set [2] (setting [3]) and in data set [2] (setting [4]) were 131 nM and 0.5 nM, respectively.

On to `Nc1nc(NCCN2CCN(c3cc(O[C@H]4CC[S@@+]([O-])CC4)c(F)cc3F)CC2)nc2nc(-c3ccco3)nn12` [Compound 14, (1s,4s)-4-(5-(4-(2-((7-amino-2-(furan-2-yl)-[1,2,4]triazolo[1,5-a][1,3,5]triazin-5-yl)amino)ethyl)piperazin-1-yl)-2,4-difluorophenoxy)tetrahydro-2H-thiopyran 1-oxide], for which, in data set [1], the efflux ratio at 120 min, 2 μM was over 900. Besides, the IC50 was 71 nM in data set [2] (setting [3]) and 0.7 nM in data set [2] (setting [4]).

In the case of `Nc1nc(NCCN2CCN(c3ccc(C(=O)N4CC[S+]([O-])CC4)cc3F)CC2)nc2nc(-c3ccco3)nn12` [Compound 18, (4-(4-(2-((7-amino-2-(furan-2-yl)-[1,2,4]triazolo[1,5-a][1,3,5]triazin-5-yl)amino)ethyl)piperazin-1-yl)-3-fluorophenyl)(1-oxidothiomorpholino)methanone], the efflux ratio at 120 min, 2 μM in data set [1] is over 80. For the same compound, the IC50 worked out at 632 nM in data set [2] (setting [3]) and 0.5 nM in data set [2] (setting [4]).

With `Nc1nc(NCCN2CCN(c3ccc(O[C@H]4CC[S@@+]([O-])CC4)cc3F)CC2)nc2nc(-c3ccco3)nn12` [Compound 19], in data set [1], the efflux ratio at 120 min, 2 μM is over 110. The IC50 in data set [2] (setting [3]) stood at 106 nM; in data set [2] (setting [4]) it was 0.8 nM.

As to `Cn1c(=O)n(CCN2CCN(c3ccc(OCC[S+](C)[O-])cc3F)CC2)c2nc(N)n3nc(-c4ccco4)nc3c21` (stereo not drawn) [Compound 20, 5-amino-3-(2-(4-(2-fluoro-4-(2-(methylsulfinyl)ethoxy)phenyl)piperazin-1-yl)ethyl)-8-(furan-2-yl)-1-methyl-1H-[1,2,4]triazolo[5,1-i]purin-2(3H)-one], the efflux ratio at 120 min, 2 μM in data set [1] was over 300. Besides, the IC50 in data set [2] (setting [3]) amounted to 72 nM; in data set [2] (setting [4]), 0.4 nM.

Turning to `Cn1c(=O)n(CCN2CCN(c3cc(OC4CCNC4=O)c(F)cc3F)CC2)c2nc(N)n3nc(-c4ccco4)nc3c21` (stereo not drawn) [Compound 21, 5-amino-3-(2-(4-(2,4-difluoro-5-((2-oxopyrrolidin-3-yl)oxy)phenyl)piperazin-1-yl)ethyl)-8-(furan-2-yl)-1-methyl-1H-[1,2,4]triazolo[5,1-i]purin-2(3H)-one], in data set [1], the efflux ratio at 120 min, 2 μM is over 150. The IC50 stood at 178 nM in data set [2] (setting [3]) and 0.4 nM in data set [2] (setting [4]).
